Laboratory results published in PubChem BioAssay AID463074 (Broad Institute, 2010).
Calls of active or inactive are those of the source.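 Rule for the calls: active = AC50 no more than tenfold above the top dose tested, or full inhibition at every dose with a flat fit (cut at about 19 µM in these data); inconclusive = flat curve fit with inhibition between 30% and 70%, or poor fit; inactive = AC50 more than tenfold above the top dose tested.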

Test system: HMLE_sh_eGFP viability, CellTiter-Glo luminescence, 72 h
Test: cytotoxicity in HMLE control line with eGFP shRNA, dose response, counter-screen for HMLE_sh_ECad selective toxicity project, cell-based, HMLE_sh_eGFP, luminescence (AID 463074);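 note: counterscreen control line to flag general toxicity for the HMLE_sh_ECad screen; potency for loss of viability as luminescence drops below DMSO wells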

| SMILES | AC50 |
| --- | --- |
| COc1cc(/C=C2\C(=O)ON=C2c2ccc(Cl)cc2)ccc1O | 1.55 µM |
| O=C(Nc1ccc(C(F)(F)F)cc1)c1cccn(Cc2ccc3c(c2)OC(F)(F)O3)c1=O | 4.91 µM |
| COc1cccc(Nc2nc(-c3cccs3)nc3ccccc23)c1 | 7.32 µM |
| CCCCCCSc1cc(-c2nc3cc(C)ccn3c2NCCCC)ccc1OC | 8.88 µM |
| CCCCCCSc1ccc(-c2nc3cnccn3c2NCCCC)cc1 | 4.07 µM |
| CNc1nc(SCc2ccccc2Cl)nc2c1CCCC2 | 8.77 µM |
| COc1ccc(-c2oc3c4c(cc(OC)c3c(=O)c2CC=C(C)C)OC(C)(C)C=C4)c(OC)c1 | 7.18 µM |
| CC(C)N1CCN(Cc2ccc(OC3CCCC3)cc2)CC1CCO (configuration not stated) | 16.7 µM |
| O=C(Nc1ccc2c(c1)OCCO2)c1cccc2nc3ccccc3nc12 | 3.18 µM |
| CC(C)=CCc1c(O)ccc(C(=O)Cc2ccccc2)c1O | 4.41 µM |
| O=C(c1ccc(C#CC2(O)CCCCC2)cc1)N1CCN(C(c2ccccc2)c2ccccc2)CC1 | 2.52 µM |
| CC(=O)Oc1ccc(-c2ccc(C(=O)Nc3cccc(S(=O)(=O)N4CCOCC4)c3)cc2)cc1 | 1.46 µM |
| CCSc1ncc(/C=N/Nc2ccc(Cl)cc2)n1C | 6.75 µM |
| O=C(NC1CCCCC1)C(c1cccnc1)N(C(=O)CCl)c1ccc(F)cc1 (configuration not stated) | 3.47 µM |
| COCC(C)NC(=O)NC1(C(F)(F)F)Oc2ccc(Cl)cc2O1 (configuration not stated) | 18.3 µM |
| COc1ccccc1NC(=O)Nc1ccc(-n2ccc(C(F)(F)F)n2)cc1 | 10.3 µM |
| Cc1ccc(SC[C@H](C)CN2CC[C@H](C(C)(C)C)CCC2=O)cc1 | 6.63 µM |
| Cc1cccc(N2CCN(C(=O)c3cc4n(n3)C(C(F)(F)F)CC(c3ccco3)N4)CC2)c1C (configuration not stated) | 9.71 µM |
| CN1/C(=C\C(=O)Nc2ccc(Br)cc2)C(C)(C)c2ccccc21 | 7.32 µM |
| C=C(C(=O)c1ccccc1)C(CC(=O)c1ccccc1)c1ccccc1 (configuration not stated) | 3.6 µM |
| CCCC(=O)NC(c1ccc2c(c1)OCO2)c1cc(Cl)c2cccnc2c1O (configuration not stated) | 3.1 µM |
| Cc1cc(C)nc(SCc2ccc(C(=O)N/N=C/c3cccc(O)c3O)cc2)n1 | 3.71 µM |

| SMILES | AC50 |
| --- | --- |
| Cc1nn(-c2ccccc2)c2nc(N)c(C#N)c(-c3ccc(C(C)(C)C)cc3)c12 | 3.24 µM |
| O=C(Cn1ncc(Cl)c(Cl)c1=O)NC(=O)NC1CCCCC1 | 2.23 µM |
| Cc1cccc(NC(=O)c2nc[nH]c2C(=O)NCCCNC(=O)c2[nH]cnc2C(=O)Nc2cccc(C)c2)c1 | 6.71 µM |
| Oc1ccc(N=Nc2ccc3ccccc3c2)cc1 | 7.43 µM |
| CCCCCCC[C@@H](C/C=C/CCC(=O)N(C)C/C(=C/Cl)C/C(=C\C(=O)N1CC(OC)=CC1=O)OC)OC | 5.38 µM |
| Cc1ccc(S(=O)(=O)Nc2ccccc2-c2ccccc2NS(=O)(=O)c2ccc(C)cc2)cc1 | 6.98 µM |
| COc1ccc(CCNc2cc(C)nc3c(-c4ccc(Cl)cc4)c(C)nn23)cc1OC | 3.62 µM |
| CCCCn1c(=O)c(C(=O)NCc2ccccc2)c(O)c2ccccc21 | 8.36 µM |
| COc1ccc(-c2cc(-c3nc4ccccn4c3NCc3ccccc3)ccc2OC)cc1 | 1.96 µM |
| CC(OC(=O)c1cccs1)C(=O)NC1CCCCC1C (configuration not stated) | > 19.5 µM (inactive) |
| Cc1cc(C)c(NC(=O)CSCc2c(C)noc2C)c(C)c1 | > 19.5 µM (inactive) |
| CCCCCCCCNC(C)C(O)c1ccc(SC(C)C)cc1 (configuration not stated) | 3.83 µM |
| Cc1ccc(-c2cc([C@H]3[C@@H]4C=CCC[C@@]4(C)C(=O)N3Cc3ccccc3)ccc2F)cc1 | 5.2 µM |
| O=[N+]([O-])c1cccc(-c2csc(N/N=C/c3cccc(O)c3)n2)c1 | 3.7 µM |
| COc1ccc(-n2sc3c(c2=S)-c2cc(OC)ccc2NC3(C)C)cc1 | 3.51 µM |
| CC[C@@]1(O)C(=O)OCc2c1cc1n(c2=O)Cc2cc3c(NC(=O)CN)cccc3nc2-1 | 2.56 µM |
| CC(C)(C)c1cc(Cl)ccc1OCCOCCN1CCCC1 | 6.54 µM |
| OCCN(CCO)CC(O)COc1ccc(C23CC4CC(CC(C4)C2)C3)cc1 (configuration not stated) | 0.493 µM |
| CC(C)c1ccccc1OCC(O)CN(CC(O)COc1cccc2ccccc12)C(C)C (configuration not stated) | 3.47 µM |
| Cc1cccc(Cn2cc(/C=C/[N+](=O)[O-])c3ccccc32)c1 | 3.47 µM |
| Cc1cc(C)c(OCCCCN2CCNCC2)c(C)c1 | 16 µM |
| CC(NC(=O)COC(=O)c1cc(NS(=O)(=O)c2ccc(Cl)c([N+](=O)[O-])c2)ccc1O)C1CC2CCC1C2 (configuration not stated) | 3.52 µM |

| SMILES | AC50 |
| --- | --- |
| CC(C)c1ccc2c(c1)c(SC(C)(C)C)c(CC(C)(C)C(=O)O)n2Cc1ccc(Cl)cc1 | 2 µM |
| COc1ccc(-c2sc3cc4c(cc3c2C#CC2(O)CCCCC2)OCO4)cc1 | 6.35 µM |
| O=C(c1cnc2ccc3ccccc3c2c1)c1cc(F)ccc1O | 0.86 µM |
| COC(=O)C1C(=O)C2=C(CC1C)NC(=O)CC2c1cccc(C)c1 (configuration not stated) | > 19.5 µM (inactive) |
| CC1(NC(=O)CC(c2ccccc2)(c2ccccc2)c2ccccc2)CCN(CCCc2ccccc2)C1=O (configuration not stated) | 6.85 µM |
| COc1ccc(-c2sc3ccc(N4CCOCC4)cc3c2C#CC2(O)CCCCC2)cc1 | 2.94 µM |
| CC1=NN(c2nc(-c3ccc(F)cc3)cs2)C(=O)C1 | 13.4 µM |
| COc1ccc(Nc2nc(-c3cccc([N+](=O)[O-])c3)nc3ccccc23)cc1 | 17.8 µM |
| Clc1ccc(C(c2ccccc2Cl)C(Cl)Cl)cc1 (configuration not stated) | 6.32 µM |
| CCCC(C)c1nnc(NC(=O)COc2ccc3c(c2)OCO3)s1 (configuration not stated) | 9.04 µM |
| COC(=O)c1cccc(NC(=O)Nc2ccc(Cl)c(Cl)c2)c1 | 11.4 µM |
| CC1(c2ccc(O)cc2)NC(=O)N(c2ccccc2)N1 (configuration not stated) | 8.69 µM |
| Cc1ccc([N+](=O)[O-])cc1N(CC(=O)Nc1ccc(S(=O)(=O)Nc2cccc(C(F)(F)F)c2)cc1)S(C)(=O)=O | 4.67 µM |
| COc1cc2ccccc2cc1C(=O)Nc1ccccc1Cl | 7.94 µM |
| COc1ccc(CCNc2ccc(C(CC(N)=O)NC(=O)c3ccc(Br)cc3)cc2[N+](=O)[O-])cc1 (configuration not stated) | 11.7 µM |
| O=C(NC(c1ccc(Cl)cc1)c1c(O)ccc2ccccc12)c1ccccc1 (configuration not stated) | 2 µM |
| O=c1c2ccccc2oc2ccc(C#CC3(O)CCCCC3)cc12 | 7.11 µM |
| Cc1cc(C(=O)NNc2ccc(F)cc2)no1 | 1.68 µM |
| COc1ccc(C(=O)NNc2ccccc2)cc1OC | 1.83 µM |
| Cc1nc(SCc2nc3ccc(C(F)(F)F)cc3[nH]2)c2oc3ccccc3c2n1 | 5.23 µM |
| Oc1ccc(Nc2nc(-c3ccccc3O)nc3ccccc23)cc1 | 4.27 µM |
| S=C(Nc1cccc(Cl)c1)N(CCCN1CCCC1)Cc1cccn1Cc1ccc(Cl)cc1 | 6.86 µM |

| SMILES | AC50 |
| --- | --- |
| Cc1ccccc1NC(=O)C(Cl)=C(Cl)Cl | 7.21 µM |
| CC#CCOC(=O)c1c(C)nc2sc3c(c2c1N)CCC(O)C3 (configuration not stated) | 2.65 µM |
| COc1ccc(NS(=O)(=O)c2cc(-c3cnc(C4CC4)o3)ccc2C)cc1 | 0.968 µM |
| Clc1ccc(Nc2ncnc3ccc(Br)cc23)cc1 | 17.5 µM |
| O=C(N/N=C(\Cc1ncc[nH]1)c1ccccc1)c1ccncc1 | 3.85 µM |
| C/C(=N\N=C(/N)SC1CC(=O)N(c2ccc(Cl)c(Cl)c2)C1=O)c1cccs1 (configuration not stated) | 7.3 µM |
| CC(NS(=O)(=O)OCC(Cl)(Cl)Cl)c1ccc(C(C)(C)C)cc1 (configuration not stated) | 3.57 µM |
| Cc1ccc2sc(N(CCCN(C)C)C(=O)c3ccc(S(=O)(=O)N(C)C4CCCCC4)cc3)nc2c1C | 3.63 µM |
| CCCNCC1C(Oc2ccc(Cl)cc2Cl)C(=O)N1c1cccc(C)c1C (configuration not stated) | 7.2 µM |
| COc1ccc(Oc2c(Cl)cnn(-c3ccc(Cl)c(Cl)c3)c2=O)cc1 | 3.44 µM |
| COc1ccc(C(=O)NCC2(c3ccccc3)CCCC2)c(OC)c1 | 9.54 µM |
| COc1ccc(C)cc1NC(=O)CSc1nnc(COc2ccc(Cl)cc2)n1Cc1ccco1 | 8.28 µM |
| COc1ccc2nc(NC(=O)c3ccc([N+](=O)[O-])o3)sc2c1 | 3.77 µM |
| CC1(C)CN(c2ccccc2)N(C(=O)c2ccc(C#N)cc2)C1=O | 4.31 µM |
| Cc1ccccc1N=C(NOCc1ccc(Cl)cc1Cl)c1nonc1N | 3.81 µM |
| CCOC(=O)C1=C(CSc2nc3ccccc3s2)NC(=O)NC1c1ccc(OC)cc1 (configuration not stated) | 10.8 µM |
| Cn1c(-c2ccsc2)c(-c2cccs2)c2cc(-c3ccc4[nH]ccc4c3)ccc21 | > 19.5 µM (inactive) |
| CCCCC[C@@H]1C=C(C(=O)O)[C@H](c2ccc(Cl)c(Cl)c2)N1S(=O)(=O)c1ccc(C)cc1 | 5.05 µM |
| O=C(COC(=O)/C=C/C(=O)OCC(=O)Nc1ccccc1F)Nc1ccccc1F | 9.61 µM |
| COc1cc(OC)cc(C(=O)NCCNc2nc3cc(C)cc(C)c3cc2C#N)c1 | > 19.5 µM (inactive) |
| Cc1cccc(CN2C(=O)[C@@H]3Cc4c([nH]c5ccccc45)C(C)(C)N3C2=O)c1 | 12.3 µM |
| O=C1C=C(c2cccs2)C[C@H](c2ccccc2)[C@H]1n1nnc([N+](=O)[O-])n1 | 0.274 µM |

| SMILES | AC50 |
| --- | --- |
| O=c1cc(-c2ccccc2)[nH]n1-c1ccc([N+](=O)[O-])cc1 | 8.23 µM |
| S=C(NCCC(c1ccccc1)c1ccccc1)Nc1cccc(Cl)c1 | 2.79 µM |
| CCCCCCc1cc2cc(S(=O)(=O)c3ccc(C)cc3)c(=O)oc2cc1O | 2.43 µM |
| Cc1ccc(S(=O)(=O)N2CCN(C(=O)COc3ccc(NC(=O)c4ccco4)cc3)CC2)cc1 | > 19.5 µM (inactive) |
| O=[N+]([O-])c1cccnc1N1CCC(c2cc(-c3ccc(Cl)cc3Cl)n[nH]2)CC1 | 4.6 µM |
| CCCCN(CCCC)CCC(O)c1cc2c(Cl)cc(Cl)cc2c2cc(C(F)(F)F)ccc12 (configuration not stated) | 7.54 µM |
| Clc1ccc(/C=C/c2nc3ccccc3[nH]2)cc1 | 3.5 µM |
| Cc1ccc(-c2cc(-c3ccccc3)nc(NN)n2)cc1 | 4.19 µM |
| COc1ccc(N/N=C(/C(C)=O)N2CCCc3ccccc32)cc1 | 13.2 µM |
| CCOc1ccc(OCc2cccc(C(=O)Nc3ccc(CN4CCCCC4)cc3)c2)cc1 | 5.38 µM |
| C[C@]12CC[C@H](O)C[C@H]1CC[C@@H]1[C@@H]2CC[C@]2(C)[C@@H](C3=CC(=O)OC3)CC[C@]12O | 0.234 µM |
| COc1ccc2c(c1)[nH]c1c(=O)n(/N=C/C3C(C)C=C(C)CC3C)c(=O)[nH]c12 (configuration not stated) | > 19.5 µM (inactive) |
| COC(=O)C1=C(C)N(Cc2ccccc2)C(=NCCc2c[nH]c3ccccc23)N[C@H]1c1cccc(F)c1 | 7.06 µM |
| CCc1nc(N2CCC(C)CC2)c2oc3ccccc3c2n1 | 7.06 µM |
| CCC(C)Sc1cccc(-c2nc3ccc(C)cn3c2NCc2ccccc2)c1 (configuration not stated) | 2.88 µM |
| CCCCc1ccc(NC(=O)CSc2nc(=O)n(CCN(CC)CC)c3c2CCC3)cc1 | 9.97 µM |
| Cc1ccc(C)c(NC(=O)c2ccccc2NS(=O)(=O)c2cc([N+](=O)[O-])ccc2C)c1 | 4.27 µM |
| O=C(NCC(c1cccs1)N1CCOCC1)c1ccc(Cl)s1 (configuration not stated) | 1.76 µM |
| Cc1c(C(=O)c2cccc3ccccc23)c2cccc3c2n1[C@H](CN1CCOCC1)CO3 | 3.66 µM |
